# From US20240209456A1, “METHODS AND COMPOSITIONS RELATED TO CELL-CYCLE RNA's” (BETH ISRAEL DEACONESS MEDICAL CENTER, priority 2021, published 2024)
# *1 amine or outer side, *2 acyl side, *3 side chain or, on linkers, in order; H or OH if unused. Where a SMILES comes first, the peptide text is derived from it. Bridges are numbered along the chain shown (N, C = ends). Roman numbers before positions name the chains, in order. [ ]: non-standard residue; d: D form. Actinocin(9to1) = Cc1c2oc3c(C)ccc(C(=O)[*:1])c3nc-2c(C(=O)[*:2])c(N)c1=O; NMeV = CN[C@H](C(=O)O)C(C)C; Sar = CNCC(=O)O
# Legend:
# Type in all cases: cell-based, human
# [1] = system: c-MYC mRNA; assay: qRT-PCR of c-MYC mRNA; conditions: HL-60 released from double thymidine block, 2 hrs; MG149 200 μM, TH1834 500 μM
# Method: Total RNA isolation was carried out and all RNA samples used in this study were treated with DNase I (10 U of DNase I per 3 μg of total RNA; 37° C. for one hour; in the presence of RNase inhibitor). After DNase I treatment, RNA samples were extracted with acidic phenol (pH 4.3) to eliminate any remaining traces of DNA. cDNA syntheses were performed with Random Primers (Invitrogen) or gene-specific primers with Transcriptor Reverse Transcriptase (Roche Applied Science) according to the manufacturer's recommendation. cDNA was purified with a High Pure PCR Product Purification Kit (Roche Applied Science).
# Sybr green reaction was performed using iQ Sybr Green supermix (Biorad, Hercules, CA) using the following parameters: 95° C. (10 min), 40 cycles of 95° C. (15 s) and 60° C. (1 min) 72° C. (1 min). TaqMan analysis was performed using Hotstart Probe One-step qRT-PCR master mix (USB) at the following conditions: 50° C. (10 min.), 95° C. (2 min.), and then 40 cycles of 95° C. (15 sec.) and 60° C. (60 sec.).
# Nascent RNA/DNA capture was performed using Click-iT Nascent RNA Capture Kit (ThermoFisher) according to the manufacturer's instructions with minor modifications. Briefly, 1. Labeling the cells with EU/EdU. 200 mM EU or 30 mM EdU stock solutions were added to the cells, to a final concentration 0.5 mM or 30 μM, respectively. 2. Incubation. The cells were incubated for 1 or 2 hours. 3. […]
# [2] = system: TIP60; assay: Western blot of total proteins, TIP60; conditions: HL-60, 2 hours treatment, FIG. 10A
# Method: (§1) Whole-cell lysates from approximately 0.2×10^6 cells per each sample were separated on 12% SDS-PAGE gels and transferred to a nitrocellulose membrane. Immunoblots were stained overnight at 4° C. with the following primary antibodies: H2A.Z (1:2,000; Abcam ab4174), H2A.Z acetyl (K4+K7+K11) (1:2,000; Abcam ab18262) or TIP60 (1:1000; generous gift from Bruno Amati). All secondary horseradish peroxidase (HRP)-conjugated antibodies were diluted 1:5,000 and incubated for 1 hr at room temperature with TBST/5% BSA. Immuno-reactive proteins were detected using the Pierce® ECL system (Thermo Scientific #32106).
# [3] = system: HL-60 cells; assay: nasRNA-seq, genome wide transcription inhibition upon DRB and ActD treatment; conditions: HL-60 released from double thymidine block, 2 hr, DRB 200 μM, ActD 0.8 μM; for average gene expression reduction: vs DMSO
# Method: Nascent RNA/DNA capture was performed using Click-iT Nascent RNA Capture Kit (ThermoFisher) according to the manufacturer's instructions with minor modifications. Briefly, 1. Labeling the cells with EU/EdU. 200 mM EU or 30 mM EdU stock solutions were added to the cells, to a final concentration 0.5 mM or 30 μM, respectively. 2. Incubation. The cells were incubated for 1 or 2 hours. 3. RNA/DNA isolation. The cells were harvested and the RNA/DNA were isolated and dissolved in 14 μL of H2O. 4. Biotinylation of RNA/DNA by Click reaction. Click-iT reaction cocktail (50 μL per reaction) was prepared accordingly to manufacturer's instructions: a mixture containing 1× Click-iT EU buffer; 2 mM CuSO4; 1 mM Biotin azide; 13.25 μL of the isolated RNA; 10 mM Click-iT reaction buffer additive 1; 12 mM Click-iT reaction buffer additive 2 was prepared. After adding each component, the reaction cocktail was gently mixed by vortexing. The addition of the Click-iT reaction buffer additive 1 stock initiates the click reaction between the EU-RNA/EdU-DNA and biotin azide. Afterwards the Click-iT® reaction buffer additive 2 is added and incubated for 30 minutes with gentle vortexing. 5. RNA/DNA precipitation. 1 μL of ULTRAPURE™ Glycogen, 55 μL of 7 M ammonium acetate, and 750 μL of chilled 100% ethanol were added to the click reaction, incubated at −70° C. for at least 30 minutes and after centrifugation the pellet was dissolved in 125 μL of H2O. 6. Binding biotinylated RNA/DNA to Dynabeads® MYONE™ Streptavidin Ti magnetic beads. The RNA/DNA binding reaction mixture included: 125 μL 2×Click-iT RNA binding buffer; 2 μL Ribonuclease Inhibitor or 2 μL of water for DNA; 125 μL of the isolated biotinylated RNA/DNA. The RNA binding reaction mixture was heated at 68-70° C. for 5 minutes and 50 μL of bead suspension added into the heated RNA binding reaction mixture. The tube containing the RNA/DNA binding reaction was incubated at r.t. for 30 min while gently vortexing to prevent the beads from settling. The beads were immobilized using the magnet and washed 5 times with 500 μL of Click-iT® reaction wash buffer 1 and 5 times with 500 μL of Click-iT® reaction wash buffer 2. Finally, the beads were resuspended in 50 μL of Click-iT reaction wash buffer 2 and the captured RNA immediately processed to cDNA synthesis. The captured DNA was released into 50 μL of boiling water and used in qPCR analyses.
# Double Thymidine block (early S-phase block) was carried out as described. […] Synchrony was monitored by flow cytometry analysis of propidium iodide-stained cells using a LSRII flow cytometer (BD Biosciences) at the Harvard Stem Cell Institute/Beth Israel Deaconess Center flow cytometry facility. […]
# [4] = system: H2A.Z; assay: Western blot of total proteins, H2A.Z; conditions: HL-60, 2 hours treatment, FIG. 10A
# Method: as §1
SMILES,response of total c-MYC mRNA [1],overall global content of TIP60 [2],gene expression reduction ratio across distributions (treated/DMSO) [3],average gene expression reduction [3] [%],overall global content of H2A.Z [4]
CCCCCCCc1ccc(CCc2cccc(O)c2C(=O)O)cc1 [MG149],downregulated,–,–,–,–
"OC[C@H]1O[C@@H](n2cnc3cc(Cl)c(Cl)cc32)[C@H](O)[C@@H]1O [DRB, 5,6-Dichlorobenzimidazole 1-β-D-ribofuranoside]",–,not affected,0.45,55,not affected
O=C(O)Cn1nnc(-c2ccc(CN(CCCCOc3ccc(CN4CCCC4)cc3)CCc3ccccc3)cc2)n1 [TH1834],downregulated,–,–,–,–
"Cc1c2oc3c(C)ccc(C(=O)N[C@@H]4C(=O)N[C@H](C(C)C)C(=O)N5CCC[C@H]5C(=O)N(C)CC(=O)N(C)[C@@H](C(C)C)C(=O)O[C@@H]4C)c3nc-2c(C(=O)N[C@@H]2C(=O)N[C@H](C(C)C)C(=O)N3CCC[C@H]3C(=O)N(C)CC(=O)N(C)[C@@H](C(C)C)C(=O)O[C@@H]2C)c(N)c1=O [ActD, Actinomycin D] (I: T[dV]P[Sar][NMeV] / II: T[dV]P[Sar][NMeV]; ester I:1-I:C, II:1-II:C; linker I:N-II:N via Actinocin(9to1))",–,not affected,0.21,79,not affected
